Measured values from US7718768B2, “Biologically active peptide [sequence]” (CMS Peptides Patent Holding Company Limited, priority 2001, dated 2010).
Marks after values point to notes of the source that are not given here. No end group written: not given here.

Tests used:
[1] = system: Masugi nephritis rat model; assay: Masugi nephritis rat model; type: in vivo, Sprague Dawley (SD) rats
Description: The anti-serum was then exuded and isolated. Whole blood was collected from 15 healthy SD rats. […] Treatment started on the day of induction. […] Adequate drinking water was supplied.

mononuclear phagocyte = assay: carbon particle clearance test, phagocytotic activity of mononuclear phagocyte; type: in vivo, BALB/c mice; parameters: key: α = (cube root of K)×(body weight ÷ liver+spleen weight); conditions: peptide 5 μg/kg/day i.p. 15 days; IFN-γ and IL-2 groups 3×10^5 IU/kg/day; X ± SD
Procedure: On the next day after the last test substance administration (day 16), the mice were injected with […] body weight India ink (5 times dilution with normal saline) from the tail vein.
One minute and five minutes after Indian ink injection, 20 μl blood was obtained from the eye can thus with a heparinized tubing. The blood was mixed with 2 ml 0.1% w/v Na2CO3 and then OD680nm obtained. The outline clear index K was calculated by the following formula: K=(lgA1−lgA2)÷(t2−t1) Key: A1: OD680nm at first minute A2: OD680nm at fifth minute t2: 5 minutes […]
(§1) One day after the last test substance administration (day 16), the liver, spleen, and thymus gland were separated and blotted dry with filter paper and weighed. The phagocytosis index α was calculated as below: α=(^3√K)(W÷WLS) key: W: body weight WLS: weight of liver plus spleen Thymus gland index(%)=(thymus weight/body weight)×100% Spleen index(%)=(spleen weight/body weight)×100%

[2] = immunity organ weight test (thymus gland index, spleen index); type: in vivo, BALB/c mice; conditions: IFN-γ and IL-2 groups 3×10^5 IU/kg/day, X ± SD
Procedure: The above substances were all dissolved in 0.5 ml saline and injected intraperitoneal (i.p.) for 15 continuous days, once per day.
as §1

anti-SRBC antibody = assay: Sheep Red Blood Cell (SRBC) hemolysis test, anti-SRBC antibody formation; type: in vivo, BALB/c mice; conditions: SRBC on day 12, IFN-γ and IL-2 groups 3×10^5 IU/kg/day, X ± SD
Procedure: Sheep red blood cells (SRBC) were prepared by collecting blood from cervical vein and put into a sterile flask with glass beads. The flask was shaken for 3 minutes and the blood then mixed with Alsever solution (glucose 2.05 g, NaCl 0.4 g, […] 0.8 g, adjust to 100 ml with distilled water) and stored at 4° C. Immediately before use, samples were centrifuged at 130 g, 5 minutes to collect the SRBC. The cells were washed two times by re-suspension and centrifugation in normal saline. Then the cell pellet was collected by centrifugation at 180 g for 10 minutes and re-suspended in saline to make the final working SRBC suspension, 2% (v/v).
Complement was prepared by adding 10 volumes of fresh Cavy serum into one volume centrifuge packed SRBC, and then gently shaking for 30 minutes at 4° C. The SRBC was removed by centrifugation at 200 g for 10 minutes. 10 volumes of normal saline were added to obtain the working complement solution.
The test substances were administered as described in section 1.1, plus intraperitoneal injection 0.2 ml SRBC per mouse on day 12. On the day after the last test substance administration (day 16), blood was collected from the eye canthus and left at room temperature for one hour for serum exudation. After centrifugation at 200 g for 10 minutes, the serum was diluted by 500 times with normal saline.
To 1 ml diluted mouse serum of each mouse, 0.5 ml SRBC suspension was added. Ice cold. Then 1 ml working complement solution was added and incubated at 37° C. water bath for 10 minutes. Reactions were terminated by ice cold. Samples were then centrifuged at 200 g for 10 minutes to obtain the supernatant.
To 1 ml of this supernatant, 3 ml Drabkin solution was added and left at room temperature for 10 minutes. OD540nm was obtained.
Reference OD540nm was obtained by mixing 0.25 ml SRBC suspension with Drabkin solution to 4 ml and placed at room temperature for 10 minutes before OD540nm was taken. Sample serum index=(OD540nm of test sample[…]reference OD540nm)×500 3. The Effect of Peptides on the Phagocytosis Function of Mononuclear Phagocyte and the Weight of Immune Organ^[8,9].

[3] = after three weeks of treatment, peptides 50 μg/kg/day i.p., hydrocortisone 3.3 mg/kg/day i.p.
[4] = peptide 0.5 μg/kg/day i.p. 15 days

Compound | Serum creatinine level [1, 3] [µmol/L] | growth rate of treated nephritis rats ([1]; peptides 50 μg/kg/day i.p., hydrocortisone 3.3 mg/kg/day i.p.) | phagocytotic index (mononuclear phagocyte) | urine protein level ([1]; Week 1, 24 hours urine, peptides 50 μg/kg/day i.p., hydrocortisone 3.3 mg/kg/day i.p.) [mg] | urine protein level ([1]; Week 2, 24 hours urine, peptides 50 μg/kg/day i.p., hydrocortisone 3.3 mg/kg/day i.p. (halved after first week)) [mg] | spleen index [1, 3] | renal pathological microscopic examination ([1]; peptides 50 μg/kg/day i.p. 3 weeks, 6 heaviest kidneys per group) | weight of thymus gland (thymus gland index) [2, 4] [%] | weight of thymus gland (thymus gland index) ([2]; peptide 5 μg/kg/day i.p. 15 days) | weight of thymus gland (thymus gland index) ([2]; peptide 50 μg/kg/day i.p. 15 days) | anti-SRBC antibody formation (sample serum index) (anti-SRBC antibody; [4]) | anti-SRBC antibody formation (sample serum index) (anti-SRBC antibody; peptide 500 μg/kg/day i.p. 15 days)
C[C@]12CCC(=O)C=C1CC[C@@H]1[C@@H]2[C@@H](O)C[C@@]2(C)[C@H]1CC[C@]2(O)C(=O)CO [hydrocortisone, Hydrocortisone, reference compound] | 239 ± 107 | slower growth rate than normal | – | – | – | – | – | – | – | – | – | –
VGMGEKDSY [CMS018] | 67 ± 1 | – | 6.7 ± 1.2 | 7.0 ± 3.7 | 5.5 ± 7.9 | 3.3 ± 0.8 ×10^−3 | all pathological parameters of all rats were normal | 0.20 ± 0.03 | 0.24 ± 0.04*^@^ % | 0.23 ± 0.02*^@^ % | 3 ± 1* Unit | 66 ± 16* Unit
